# Assay results reported in patent US20080200448A1, “New Pyridine Analogues VIII 518” (ASTRAZENECA AB, priority 2007, published 2008).
# pIC50: −log10 of the molar value. Read-outs that look alike come from different tables or passages of the source.
# Biological target: T1, P2Y12 receptor (Homo sapiens, UniProt Q9H244)
# T1 construct: expressed in transfected cells; host or cells: CHO cells (membrane preparation)
# Assay: Functional inhibition of 2-Me-S-ADP induced P2Y12 signalling (35S-GTPγS binding, cell membranes)
# Format: biochemical
# Details: for IC50: 35S-GTPγS assay, membranes, EC80 concentration of 2-methyl-thio-adenosine diphosphate, 30° C. for 45 min, read-out: GTPγS (IC50 μM); for pIC50: functional inhibition of 2-Me-S-ADP induced P2Y12 signalling, membranes from P2Y12 transfected CHO-cells, EC80 concentration of agonist, read-out: IC50
# Experimental: Functional inhibition of- the P2Y12 receptor can be measured by in vitro assays using cell membranes from P2Y12 transfected CHO-cells, the methodology is indicated below.
# Functional inhibition of 2-Me-S-ADP induced P2Y12 signalling: 5 μg of membranes were diluted in 200 μl of 200 mM NaCl, 1 mM MgCl2, 50 mM HEPES (pH 7.4), 0.01% BSA, 30 μg/ml saponin and 10 μM GDP. To this was added an EC80 concentration of agonist (2-methyl-thio-adenosine diphosphate), the required concentration of test compound and 0.1 μCi ^35S-GTPγS. The reaction was allowed to proceed at 30° C. for 45 min. Samples were then transferred on to GF/B filters using a cell harvester and washed with wash buffer (50 mM Tris (pH 7.4), 5 mM MgCl2, 50 mM NaCl). Filters were then covered with scintilant and counted for the amount of ^35S-GTPγS retained by the filter. Maximum activity was that determined in the presence of the agonist and minimum activity in the absence of the agonist following subtraction of the value determined for non-specific activity. The effect of compounds at various concentrations was plotted according to the equation
# y=A+((B−A)/(1+((C/x)̂D)))
# and IC50 estimated where A is the bottom plateau of the curve i.e. the final minimum y value B is the top of the plateau of the curve i.e. the final maximum y value C is the x value at the middle of the curve. This represents the log EC50 value when A+B=100 D is the slope factor. x is the original known x values. Y is the original known y values.
# T1 sequence (Q9H244 whole entry): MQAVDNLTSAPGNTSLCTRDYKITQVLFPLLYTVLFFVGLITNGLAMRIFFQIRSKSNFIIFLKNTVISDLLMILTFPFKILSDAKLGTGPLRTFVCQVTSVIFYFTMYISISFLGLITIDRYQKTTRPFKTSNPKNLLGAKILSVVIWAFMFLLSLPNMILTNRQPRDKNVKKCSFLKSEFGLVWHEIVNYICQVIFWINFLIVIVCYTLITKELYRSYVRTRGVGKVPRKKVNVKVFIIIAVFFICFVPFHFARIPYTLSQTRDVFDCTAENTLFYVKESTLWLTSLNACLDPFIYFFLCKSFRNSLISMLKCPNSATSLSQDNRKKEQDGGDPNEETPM
SMILES,IC50,pIC50
"CCOC(=O)c1cc(C#N)c(N2CCC(C(=O)N(CC(=O)O)S(=O)(=O)Cc3ccccc3)CC2)nc1C [Example 1, N-(benzylsulfonyl)-N-({1-[3-cyano-5-(ethoxycarbonyl)-6-methylpyridin-2-yl]piperidin-4-yl}carbonyl)glycine]",0.093 µM,–
"CCOC(=O)c1cc(C#N)c(N2CCC(C(=O)NS(=O)(=O)Cc3ccccc3)CC2)nc1OC(C)=O [Example 2, Ethyl 2-acetoxy-6-{4-[(benzylsulfonyl)carbamoyl]piperidin-1-yl}-5-cyanonicotinate]",0.024 µM,–
"CCOC(=O)c1cc(C#N)c(N2CCC(C(=O)NS(=O)(=O)Cc3ccccc3)CC2)nc1CN1CCCC1 [Example 3, Ethyl 6-{4-[(benzylsulfonyl)carbamoyl]piperidin-1-yl}-5-cyano-2-(pyrrolidin-1-ylmethyl)nicotinate]",0.545 µM,–
"CCOC(=O)c1cc(C#N)c(N2CCC(C(=O)NS(=O)(=O)Cc3ccccc3)CC2)nc1CN(C)C [Example 4, Ethyl 6-{4-[(benzylsulfonyl)carbamoyl]piperidin-1-yl}-5-cyano-2-[(dimethylamino)methyl]nicotinate]",0.282 µM,6.55
"CCOC(=O)c1cc(C#N)c(N2CCC(C(=O)NS(=O)(=O)Cc3ccccc3)CC2)nc1COC(C)=O [Example 5, Ethyl 2-(acetoxymethyl)-6-{4-[(benzylsulfonyl)carbamoyl]piperidin-1-yl}-5-cyanonicotinate]",0.044 µM,–
"CCOC(=O)c1cc(C#N)c(N2CC(C(=O)NS(=O)(=O)Cc3ccccc3)C2)nc1CN(C)C [Example 6, Ethyl 6-{3-[(benzylsulfonyl)carbamoyl]azetidin-1-yl}-5-cyano-2-[(dimethylamino)methyl]nicotinate]",1.07 µM,–
"CCOC(=O)c1cc(C#N)c(N2CC(C(=O)NS(=O)(=O)Cc3ccccc3)C2)nc1COC(C)=O [Example 7, Ethyl 2-(acetoxymethyl)-6-{3-[(benzylsulfonyl)carbamoyl]azetidin-1-yl}-5-cyanonicotinate]",0.076 µM,–
"CCOC(=O)COc1nc(N2CCC(C(=O)NS(=O)(=O)Cc3ccccc3)CC2)c(C#N)cc1C(=O)OCC [Example 8, Ethyl 6-{4-[(benzylsulfonyl)carbamoyl]piperidin-1-yl}-5-cyano-2-(2-ethoxy-2-oxoethoxy)nicotinate]",0.039 µM,–
"CCOC(=O)c1cc(C#N)c(N2CC(C(=O)NS(=O)(=O)Cc3ccccc3)C2)nc1CN=[N+]=[N-] [Example 9, Ethyl 2-(azidomethyl)-6-{3-[(benzylsulfonyl)carbamoyl]azetidin-1-yl}-5-cyanonicotinate]",0.069 µM,–
"CCOC(=O)c1cc(C#N)c(N2CC(C(=O)NS(=O)(=O)Cc3ccccc3)C2)nc1CS(C)(=O)=O [Example 10, Ethyl 6-{3-[(benzylsulfonyl)carbamoyl]azetidin-1-yl}-5-cyano-2-[(methylsulfonyl)methyl]nicotinate]",0.243 µM,–
"CCOC(=O)c1cc(C#N)c(N2CCC(C(=O)NS(=O)(=O)Cc3ccccc3)CC2)nc1CN=[N+]=[N-] [Example 11, Ethyl 2-(azidomethyl)-6-{4-[(benzylsulfonyl)carbamoyl]piperidin-1-yl}-5-cyanonicotinate]",0.025 µM,–
"CCOC(=O)c1cc(C#N)c(N2CCC(C(=O)NS(=O)(=O)Cc3ccccc3)CC2)nc1CS(C)(=O)=O [Example 12, Ethyl 6-{4-[(benzylsulfonyl)carbamoyl]piperidin-1-yl}-5-cyano-2-[(methylsulfonyl)methyl]nicotinate]",0.129 µM,6.89
"CCOC(=O)c1cc(C#N)c(N2CC(C(=O)NS(=O)(=O)Cc3ccccc3)C2)nc1CN1C(=O)CCC1=O [Example 13, Ethyl 6-{3-[(benzylsulfonyl)carbamoyl]azetidin-1-yl}-5-cyano-2-[(2,5-dioxopyrrolidin-1-yl)methyl]nicotinate]",0.064 µM,–
"CCOC(=O)c1cc(C#N)c(N2CC(C(=O)NS(=O)(=O)Cc3ccccc3)C2)nc1COC(=O)CO [Example 14, Ethyl 6-{3-[(benzylsulfonyl)carbamoyl]azetidin-1-yl}-5-cyano-2-[(glycoloyloxy)methyl]nicotinate]",0.044 µM,–
"CCOC(=O)c1cc(C#N)c(N2CCC(C(=O)NS(=O)(=O)Cc3ccccc3)CC2)nc1CN1C(=O)CCC1=O [Example 15, Ethyl 6-{4-[(benzylsulfonyl)carbamoyl]piperidin-1-yl}-5-cyano-2-[(2,5-dioxopyrrolidin-1-yl)methyl]nicotinate]",0.017 µM,–
"CCOC(=O)c1cc(C#N)c(N2CCC(C(=O)NS(=O)(=O)Cc3ccccc3)CC2)nc1COC(=O)CO [Example 16, Ethyl 6-{4-[(benzylsulfonyl)carbamoyl]piperidin-1-yl}-5-cyano-2-[(glycoloyloxy)methyl]nicotinate]",0.015 µM,–
"CCOC(=O)c1cc(C#N)c(N2CCC(C(=O)NS(=O)(=O)Cc3ccccc3)CC2)nc1OCCC#N [Example 17, Ethyl 6-{4-[(benzylsulfonyl)carbamoyl]piperidin-1-yl}-5-cyano-2-(2-cyanoethoxy)nicotinate]",0.027 µM,–
"CCOC(=O)c1cc(C#N)c(N2CCC(C(=O)NS(=O)(=O)Cc3ccccc3)CC2)nc1OCCO [Example 18, Ethyl 6-{4-[(benzylsulfonyl)carbamoyl]piperidin-1-yl}-5-cyano-2-(2-hydroxyethoxy)nicotinate]",0.031 µM,–
"CCOC(=O)c1cc(C#N)c(N2CCC(C(=O)NS(=O)(=O)Cc3ccccc3)CC2)nc1SCCO [Example 19, Ethyl 6-{4-[(benzylsulfonyl)carbamoyl]piperidin-1-yl}-5-cyano-2-[(2-hydroxyethyl)thio]nicotinate]",0.016 µM,–
"CCOC(=O)c1cc(C#N)c(N2CCC(C(=O)NS(=O)(=O)Cc3ccccc3)CC2)nc1OCCNC(C)=O [Example 20, Ethyl 2-(2-acetamidoethoxy)-6-{4-[(benzylsulfonyl)carbamoyl]piperidin-1-yl}-5-cyanonicotinate]",0.038 µM,–
"CCOC(=O)c1cc(C#N)c(N2CCC(C(=O)NS(=O)(=O)Cc3ccccc3)CC2)nc1SCCNC(C)=O [Example 21, Ethyl 2-[(2-acetamidoethyl)thio]-6-{4-[(benzylsulfonyl)carbamoyl]piperidin-1-yl}-5-cyanonicotinate]",0.01 µM,–
"CCOC(=O)c1cc(C#N)c(N2CCC(C(=O)NS(=O)(=O)Cc3ccccc3)CC2)nc1OCC(N)=O [Example 22, Ethyl 2-(2-amino-2-oxoethoxy)-6-{4-[(benzylsulfonyl)carbamoyl]piperidin-1-yl}-5-cyanonicotinate]",0.072 µM,–
"CCOC(=O)c1cc(C#N)c(N2CCC(C(=O)NS(=O)(=O)Cc3ccccc3)CC2)nc1OCC1CCO1 (centres unmarked) [Example 23, Ethyl 6-{4-[(benzylsulfonyl)carbamoyl]piperidin-1-yl}-5-cyano-2-(oxetan-2-ylmethoxy)nicotinate]",0.048 µM,–
"CCOC(=O)c1cc(C#N)c(N2CCC(C(=O)NS(=O)(=O)Cc3ccccc3)CC2)nc1OCC(=O)O [Example 24, {[6-{4-[(Benzylsulfonyl)carbamoyl]piperidin-1-yl}-5-cyano-3-(ethoxycarbonyl)pyridin-2-yl]oxy}acetic acid]",0.025 µM,–
"CCOC(=O)c1cc(C#N)c(N2CCC(C(=O)NS(=O)(=O)Cc3ccccc3)CC2)nc1OCC(=O)NC [Example 25, Ethyl 6-{4-[(benzylsulfonyl)carbamoyl]piperidin-1-yl}-5-cyano-2-[2-(methylamino)-2-oxoethoxy]nicotinate]",0.075 µM,–
"CCOC(=O)c1cc(C#N)c(N2CCC(C(=O)NS(=O)(=O)Cc3ccccc3)CC2)nc1SCC(=O)O [Example 26, {[6-{4-[(Benzylsulfonyl)carbamoyl]piperidin-1-yl}-5-cyano-3-(ethoxycarbonyl)pyridin-2-yl]thio}acetic acid]",0.0081 µM,–
"CCOC(=O)c1cc(C#N)c(N2CCC(C(=O)NS(=O)(=O)Cc3ccccc3)CC2)nc1CSCC [Example 27, Ethyl 6-{4-[(benzylsulfonyl)carbamoyl]piperidin-1-yl}-5-cyano-2-[(ethylthio)methyl]nicotinate]",0.057 µM,–
"CCOC(=O)c1cc(C#N)c(N2CCC(C(=O)NS(=O)(=O)Cc3ccccc3)CC2)nc1CSCCO [Example 28, Ethyl 6-{4-[(benzylsulfonyl)carbamoyl]piperidin-1-yl}-5-cyano-2-{[(2-hydroxyethyl)thio]methyl}nicotinate]",0.037 µM,–
"CCOC(=O)c1cc(C#N)c(N2CCC(C(=O)NS(=O)(=O)Cc3ccccc3)CC2)nc1CSCCNC(C)=O [Example 29, Ethyl 2-{[(2-acetamidoethyl)thio]methyl}-6-{4-[(benzylsulfonyl)carbamoyl]piperidin-1-yl}-5-cyanonicotinate]",0.033 µM,–
"CCOC(=O)c1cc(C#N)c(N2CC(C(=O)NS(=O)(=O)Cc3ccccc3)C2)nc1CSCC [Example 30, Ethyl 6-{3-[(benzylsulfonyl)carbamoyl]azetidin-1-yl}-5-cyano-2-[(ethylthio)methyl]nicotinate]",0.106 µM,–
